MIC and IC50 data for two compounds are collected here from ChEMBL document CHEMBL1151624, “Isolation of artemisinin (qinghaosu) from Artemisia annua growing in the United States” (J Nat Prod, 1984).

Values after ≈ are worked out from the molar mass of the structure shown.

One experiment deals with Escherichia coli. The experiment is described as follows: Antimicrobial activity against Escherichia coli. The format is functional.
A further experiment concerns Staphylococcus aureus. The experiment can be described thus: Antimicrobial activity against Staphylococcus aureus. The format is functional.
The next experiment relates to Neisseria meningitidis. The experiment is described as follows: Antimicrobial activity against Neisseria meningitidis. The format is functional.
Another experiment has as its system Neisseria gonorrhoeae. The experiment is described as follows: Antimicrobial activity against Neisseria gonorrhoeae. The format is functional.
The test system of a further experiment is Serratia marcescens. The experiment is described as follows: Antimicrobial activity against Serratia marcescens. Type of experiment: functional.
Experiment [1] concerns Plasmodium falciparum. The experiment is described as follows: Antimalarial activity against chloroquine-sensitive Plasmodium falciparum CAMP by semiautomated micro dilution assay. Type of experiment: functional, organism-based.
The subject of another experiment is Enterococcus faecalis. The experiment is described as follows: Antimicrobial activity against Streptococcus faecalis. Type of experiment: functional.
Experiment [2] has as its system Plasmodium falciparum. The experiment can be described thus: Antimalarial activity against chloroquine-resistant Plasmodium falciparum Smith by semiautomated micro dilution assay. Type of experiment: functional, organism-based.
The test system of the next experiment is Shigella dysenteriae. The experiment can be described thus: Antimicrobial activity against Shigella dysenteriae. The format is functional.
A further experiment deals with Proteus sp. The experiment is described as follows: Antimicrobial activity against Proteus Sp. The format is functional. To be noted: Proteus sp. (in: enterobacteria).
The subject of another experiment is Klebsiella. The experiment can be described thus: Antimicrobial activity against Klebsiella. Type of experiment: functional.

As for `C[C@@H]1CC[C@H]2[C@@H](C)C(=O)O[C@@H]3O[C@@]4(C)CC[C@@H]1[C@]32OO4` [ARTEMISININ], the MIC in the experiment with Escherichia coli is more than 32 µg/mL; with Staphylococcus aureus, more than 32 µg/mL; against Neisseria meningitidis, more than 1 µg/mL; with Neisseria gonorrhoeae, more than 1 µg/mL; in the experiment with Serratia marcescens it was more than 32 µg/mL; against Enterococcus faecalis, more than 32 µg/mL. In addition, the minimum inhibitory concentration (MIC) in the experiment on Shigella dysenteriae, in the experiment with Proteus sp. and in the experiment on Klebsiella was more than 32 µg/mL in each case. The IC50 with Plasmodium falciparum [1] and in the experiment on Plasmodium falciparum [2] was less than 0.0034 µg/mL in each case.
As to `OC(c1cc(C(F)(F)F)nc2c(C(F)(F)F)cccc12)C1CCCCN1` (stereo not drawn) [MEFLOQUINE], the half-maximal inhibitory concentration (IC50) in the experiment with Plasmodium falciparum [1] is 0.0035 µg/mL (≈ 0.00925 µM); in the experiment with Plasmodium falciparum [2] it was 0.0025 µg/mL (≈ 0.00661 µM).
